Data taken from ChEMBL document CHEMBL2151025, “Synthesis and structure-activity relationship of potent, selective and orally active anthranilamide-based factor Xa inhibitors: application of weakly basic sulfoximine group as novel S4 binding element” (Eur J Med Chem, 2012).
Activity calls are given as the source filed them. The rule behind the calls is not given here.

Assays:
[1] = biological target: T1, Coagulation factor X (Homo sapiens, UniProt P00742); assay: Inhibition of human F10a using S-2765 as substrate at 0.1 uM after 45 mins
T1 sequence (P00742 41-179 limits assumed): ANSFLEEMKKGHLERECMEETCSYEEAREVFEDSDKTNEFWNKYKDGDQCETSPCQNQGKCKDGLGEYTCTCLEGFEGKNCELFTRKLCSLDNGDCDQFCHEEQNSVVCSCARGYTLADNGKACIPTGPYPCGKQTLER
T1 sequence (P00742 235-488 limits assumed): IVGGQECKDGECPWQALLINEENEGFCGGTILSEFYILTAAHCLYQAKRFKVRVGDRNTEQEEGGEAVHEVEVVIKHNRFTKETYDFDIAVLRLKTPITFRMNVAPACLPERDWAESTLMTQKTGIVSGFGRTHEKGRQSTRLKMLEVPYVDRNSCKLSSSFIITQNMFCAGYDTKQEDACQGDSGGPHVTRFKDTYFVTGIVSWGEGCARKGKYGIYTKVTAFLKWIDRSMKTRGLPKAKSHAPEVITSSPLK

[2] = test system: Plasma
[3] = test system: Rattus norvegicus; assay: Antithrombotic activity in FeCl3-induced arterial thrombosis Wistar rat model assessed as reduction in thrombus weight at 10 mg/kg, po after 2 hrs; format: functional; set-up: scale not given: the % may be the effect or the level left
[4] = test system: Rattus norvegicus; assay: Antithrombotic activity in FeCl3-induced arterial thrombosis Wistar rat model assessed as reduction in thrombus weight at 30 mg/kg, po after 2 hrs; format: functional; set-up: scale not given: the % may be the effect or the level left
[5] = test system: Plasma; assay: Plasma concentration in fasted Wistar rat at 30 mg/kg, po; format: ADME, organism-based; set-up: dose 30 mg/kg, route oral; conditions: in vivo
[6] = test system: Rattus norvegicus; assay: Cmax in fasted Wistar rat assessed as 5-Chloro-N-(5-chloropyridin-2-yl)-2-(4-(N-(2-(ethyl-amino)acetyl)-S-methylsulfon imidoyl) benzamido) benzamide at 30 mg/kg, po; format: ADME, organism-based; set-up: dose 30 mg/kg, route oral; conditions: in vivo
[7] = test system: Rattus norvegicus; assay: Tmax in fasted Wistar rat assessed as 5-Chloro-N-(5-chloropyridin-2-yl)-2-(4-(N-(2-(ethyl-amino)acetyl)-S-methylsulfon imidoyl) benzamido) benzamide at 30 mg/kg, po; format: ADME, organism-based; set-up: dose 30 mg/kg, route oral; conditions: in vivo
[8] = test system: Rattus norvegicus; assay: Half life in fasted Wistar rat assessed as 5-Chloro-N-(5-chloropyridin-2-yl)-2-(4-(N-(2-(ethyl-amino)acetyl)-S-methylsulfon imidoyl) benzamido) benzamide at 30 mg/kg, po; format: ADME, organism-based; set-up: dose 30 mg/kg, route oral; conditions: in vivo
[9] = test system: Rattus norvegicus; assay: AUC (0 to 24 hrs) in fasted Wistar rat assessed as 5-Chloro-N-(5-chloropyridin-2-yl)-2-(4-(N-(2-(ethyl-amino)acetyl)-S-methylsulfon imidoyl) benzamido) benzamide at 30 mg/kg, po; format: ADME, organism-based, Plasma; set-up: time < 24 hr, dose 30 mg/kg, route oral; conditions: in vivo
[10] = test system: Rattus norvegicus; assay: Antithrombotic activity in FeCl3-induced venous thrombosis Wistar rat model assessed as reduction in thrombus weight at 10 mg/kg, po after 2 hrs; format: functional; set-up: scale not given: the % may be the effect or the level left
[11] = test system: Rattus norvegicus; assay: Antithrombotic activity in FeCl3-induced venous thrombosis Wistar rat model assessed as reduction in thrombus weight at 30 mg/kg, po after 2 hrs; format: functional; set-up: scale not given: the % may be the effect or the level left
[12] = biological target: T1, Coagulation factor X; assay: Inhibition of human F10a using S-2765 as substrate after 45 mins
[13] = test system: Plasma; assay: Anticoagulant activity in rat plasma assessed as concentration required to double prothrombin time; format: functional
[14] = test system: Rattus norvegicus; assay: Antithrombotic activity in po dosed FeCl3-induced arterial thrombosis Wistar rat model assessed as reduction in thrombus weight after 2 hrs; format: functional, organism-based
[15] = test system: Rattus norvegicus; assay: Antithrombotic activity in po dosed FeCl3-induced venous thrombosis Wistar rat model assessed as reduction in thrombus weight after 2 hrs; format: functional, organism-based
[16] = biological target: T1, Coagulation factor X; assay: Inhibition of F10a assessed as S-2765 substrate hydrolysis by microplate reader analysis
[17] = biological target: Prothrombin (Homo sapiens, UniProt P00734); assay: Inhibition of thrombin assessed as S-2238 substrate hydrolysis by microplate reader analysis
[18] = biological target: Plasminogen (Homo sapiens, UniProt P00747); assay: Inhibition of plasmin assessed as S-2302 substrate hydrolysis by microplate reader analysis
Chain of Plasminogen (P00747 97-580 limits assumed): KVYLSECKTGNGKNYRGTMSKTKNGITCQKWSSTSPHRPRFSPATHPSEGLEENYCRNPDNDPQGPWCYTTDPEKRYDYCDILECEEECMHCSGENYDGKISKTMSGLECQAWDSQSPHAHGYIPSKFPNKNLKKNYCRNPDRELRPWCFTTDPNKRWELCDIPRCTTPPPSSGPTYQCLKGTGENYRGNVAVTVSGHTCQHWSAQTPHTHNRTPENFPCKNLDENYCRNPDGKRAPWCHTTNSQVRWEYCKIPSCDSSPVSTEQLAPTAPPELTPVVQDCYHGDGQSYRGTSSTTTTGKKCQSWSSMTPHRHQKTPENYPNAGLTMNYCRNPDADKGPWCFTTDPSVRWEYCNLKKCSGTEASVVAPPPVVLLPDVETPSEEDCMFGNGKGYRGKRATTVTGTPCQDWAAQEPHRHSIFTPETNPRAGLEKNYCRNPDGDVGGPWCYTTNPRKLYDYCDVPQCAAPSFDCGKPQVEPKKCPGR
Chain of Plasminogen (P00747 581-810 limits assumed): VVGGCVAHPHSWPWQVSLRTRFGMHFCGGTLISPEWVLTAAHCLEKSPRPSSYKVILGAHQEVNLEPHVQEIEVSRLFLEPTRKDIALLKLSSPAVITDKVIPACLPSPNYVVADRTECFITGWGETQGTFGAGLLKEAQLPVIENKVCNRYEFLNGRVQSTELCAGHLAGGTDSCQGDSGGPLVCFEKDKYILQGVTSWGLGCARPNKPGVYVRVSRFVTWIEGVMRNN

[19] = biological target: Tissue-type plasminogen activator (Homo sapiens, UniProt P00750); assay: Inhibition of tPA assessed as S-2288 substrate hydrolysis by microplate reader analysis
Chain of Tissue-type plasminogen activator (P00750 whole entry): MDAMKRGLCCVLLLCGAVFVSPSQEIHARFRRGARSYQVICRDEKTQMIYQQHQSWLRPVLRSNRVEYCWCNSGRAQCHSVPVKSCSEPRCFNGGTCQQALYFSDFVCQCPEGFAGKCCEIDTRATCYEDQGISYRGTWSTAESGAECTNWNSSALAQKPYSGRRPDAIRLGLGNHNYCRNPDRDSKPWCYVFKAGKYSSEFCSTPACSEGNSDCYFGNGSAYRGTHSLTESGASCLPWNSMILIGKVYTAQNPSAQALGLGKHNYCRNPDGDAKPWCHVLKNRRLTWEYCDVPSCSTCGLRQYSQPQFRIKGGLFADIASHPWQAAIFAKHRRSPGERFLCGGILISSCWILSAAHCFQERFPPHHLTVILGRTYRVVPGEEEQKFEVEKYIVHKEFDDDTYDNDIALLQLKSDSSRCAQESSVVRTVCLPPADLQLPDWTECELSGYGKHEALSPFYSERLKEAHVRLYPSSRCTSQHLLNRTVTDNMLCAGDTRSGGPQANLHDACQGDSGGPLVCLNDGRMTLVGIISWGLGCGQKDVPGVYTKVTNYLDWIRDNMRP

[20] = Inhibition of trypsin assessed as S-2222 substrate hydrolysis by microplate reader analysis
[21] = biological target: Vitamin K-dependent protein C (Homo sapiens, UniProt P04070); assay: Inhibition of activated protein C assessed as S-2366 substrate hydrolysis by microplate reader analysis
Chain of Vitamin K-dependent protein C (P04070 43-197 limits assumed): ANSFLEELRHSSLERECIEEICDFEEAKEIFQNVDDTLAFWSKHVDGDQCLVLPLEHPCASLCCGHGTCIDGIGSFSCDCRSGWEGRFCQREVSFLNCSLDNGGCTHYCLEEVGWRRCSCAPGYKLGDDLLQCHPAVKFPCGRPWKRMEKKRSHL
Chain of Vitamin K-dependent protein C (P04070 212-461 limits assumed): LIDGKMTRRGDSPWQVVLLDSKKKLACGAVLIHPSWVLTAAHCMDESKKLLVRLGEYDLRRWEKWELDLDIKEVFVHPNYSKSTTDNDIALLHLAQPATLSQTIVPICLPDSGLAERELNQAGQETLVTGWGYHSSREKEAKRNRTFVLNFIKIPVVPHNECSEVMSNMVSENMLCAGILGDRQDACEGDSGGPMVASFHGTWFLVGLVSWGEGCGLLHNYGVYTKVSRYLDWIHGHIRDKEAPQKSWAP

[22] = biological target: CYP3A4 (Homo sapiens, UniProt P08684); assay: Inhibition of human CYP3A4 at 10 uM; format: ADME
Chain of CYP3A4 (P08684 whole entry): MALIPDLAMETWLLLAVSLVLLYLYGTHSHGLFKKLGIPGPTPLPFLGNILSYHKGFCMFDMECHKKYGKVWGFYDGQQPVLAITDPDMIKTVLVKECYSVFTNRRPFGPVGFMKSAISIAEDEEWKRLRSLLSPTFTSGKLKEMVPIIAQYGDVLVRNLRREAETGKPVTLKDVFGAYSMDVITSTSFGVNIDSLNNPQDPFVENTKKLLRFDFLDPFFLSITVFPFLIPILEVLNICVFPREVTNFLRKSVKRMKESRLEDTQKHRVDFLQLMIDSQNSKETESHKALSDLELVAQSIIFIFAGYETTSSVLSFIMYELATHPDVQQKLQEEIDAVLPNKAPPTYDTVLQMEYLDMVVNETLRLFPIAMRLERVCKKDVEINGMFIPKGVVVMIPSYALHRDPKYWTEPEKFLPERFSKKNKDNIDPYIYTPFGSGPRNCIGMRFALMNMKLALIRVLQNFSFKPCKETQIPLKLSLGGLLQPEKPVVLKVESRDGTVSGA

Row | SMILES | inhibition [1] | 2PT [2] [µM] | 2PT [13] [µM] | further results
1 | CS(=O)(=NC(=O)CN1CCC(O)CC1)c1ccc(C(=O)Nc2ccc(Cl)cc2C(=O)Nc2ccc(Cl)cn2)cc1 (configuration not stated) | 69% | 2.16 | – | –
2 | CCN(CC)CC(=O)N=S(C)(=O)c1ccc(C(=O)Nc2ccc(Cl)cc2C(=O)Nc2ccc(Cl)cn2)cc1.Cl (configuration not stated) | – | – | – | Activity [3]: 32%; Activity [4]: 71%; Cp [5]: < 100 ng/mL; Cmax [6]: 3280 ng/mL; Tmax [7]: 2.75 h; t1/2 [8]: 4.79 h; AUC [9]: 43510 ng·h/mL; Activity [10]: 45%; Activity [11]: 81%
3 | CS(=O)(=NC(=O)CN1CCCC1)c1ccc(C(=O)Nc2ccc(Cl)cc2C(=O)Nc2ccc(Cl)cn2)cc1 (configuration not stated) | 95% | 0.46 | 1.57 | IC50 [12]: 3.2 nM
4 | CCS(=N)(=O)c1ccc(C(=O)Nc2ccc(Cl)cc2C(=O)Nc2ccc(Cl)cn2)cc1 (configuration not stated) | inactive | – | – | –
5 | CN1CCCN(CC(=O)N=S(C)(=O)c2ccc(C(=O)Nc3ccc(Cl)cc3C(=O)Nc3ccc(Cl)cn3)cc2)CC1 (configuration not stated) | 75% | 1.82 | – | –
6 | CCN(CC)CCN=S(C)(=O)c1ccc(C(=O)Nc2ccc(Cl)cc2C(=O)Nc2ccc(Cl)cn2)cc1 (configuration not stated) | 77% | 1.78 | – | –
7 | CS(=N)(=O)Cc1ccc(C(=O)Nc2ccc(Cl)cc2C(=O)Nc2ccc(Cl)cn2)cc1 (configuration not stated) | inactive | – | – | –
8 | CC(C)NCC(=O)N=S(C)(=O)c1ccc(C(=O)Nc2ccc(Cl)cc2C(=O)Nc2ccc(Cl)cn2)cc1 (configuration not stated) | 97% | 0.95 | 1.9 | IC50 [12]: 4 nM
9 | C[S+](=N)([O-])c1ccc(C(=O)Nc2ccc(Cl)cc2C(=O)Nc2ccc(Cl)cn2)cc1 (configuration not stated) | 76% | 7.2 | – | –
10 | CS(=O)(=NC(=O)CNC1CCCC1)c1ccc(C(=O)Nc2ccc(Cl)cc2C(=O)Nc2ccc(Cl)cn2)cc1 (configuration not stated) | 100% | 2.26 | – | –
11 | CNCC(=O)N=S(C)(=O)c1ccc(C(=O)Nc2ccc(Cl)cc2C(=O)Nc2ccc(Cl)cn2)cc1 (configuration not stated) | 93% | 0.77 | 1.7 | IC50 [12]: 5.4 nM
12 | CC(C)N(CC(=O)N=S(C)(=O)c1ccc(C(=O)Nc2ccc(Cl)cc2C(=O)Nc2ccc(Cl)cn2)cc1)C(C)C (configuration not stated) | 79% | 1.45 | – | –
13 | CCN(CC)CC(=O)N=S(C)(=O)c1ccc(C(=O)Nc2ccc(OC)cc2C(=O)Nc2ccc(Cl)cn2)cc1 (configuration not stated) | 56% | 1.44 | – | –
14 | CS(=O)(=NC(=O)CN1CCC(C(N)=O)CC1)c1ccc(C(=O)Nc2ccc(Cl)cc2C(=O)Nc2ccc(Cl)cn2)cc1 (configuration not stated) | 49% | 2.54 | – | –
15 | O=C(NC[C@H]1CN(c2ccc(N3CCOCC3=O)cc2)C(=O)O1)c1ccc(Cl)s1 [RIVAROXABAN] | – | 0.39 | 1.5 | Activity [3]: 50%; Activity [10]: 63%
16 | COc1cc(Cl)cc(C(=O)Nc2ccc(Cl)cn2)c1NC(=O)c1ccc(S(C)(=O)=NC(=O)CN2CCCC2)cc1 (configuration not stated) | 90% | 0.53 | 1.1 | IC50 [12]: 6.4 nM
17 | CS(=O)(=NC(=O)CN1CCCCC1)c1ccc(C(=O)Nc2ccc(Cl)cc2C(=O)Nc2ccc(Cl)cn2)cc1 (configuration not stated) | 97% | 1.73 | – | –
18 | CS(=O)(=NC(N)=O)c1ccc(C(=O)Nc2ccc(Cl)cc2C(=O)Nc2ccc(Cl)cn2)cc1 (configuration not stated) | 41% | 4.1 | – | –
19 | COCC(=O)N=S(C)(=O)c1ccc(C(=O)Nc2ccc(Cl)cc2C(=O)Nc2ccc(Cl)cn2)cc1 (configuration not stated) | 48% | 3 | – | –

Row | SMILES | inhibition [1] | 2PT [2] [µM] | 2PT [13] [µM] | further results
20 | COc1ccc(NC(=O)c2ccc(S(C)(=N)=O)cc2)c(C(=O)Nc2ccc(Cl)cn2)c1 (configuration not stated) | 42% | – | – | –
21 | CCNCC(=O)N=S(C)(=O)c1ccc(C(=O)Nc2c(OC)cc(Cl)cc2C(=O)Nc2ccc(Cl)cn2)cc1 (configuration not stated) | 100% | 0.74 | 1.15 | IC50 [12]: 2.4 nM
22 | COc1cc(Cl)cc(C(=O)Nc2ccc(Cl)cn2)c1NC(=O)c1ccc(S(C)(=N)=O)cc1 (configuration not stated) | 69% | – | – | –
23 | CS(=O)(=NC(=O)CN1CCOCC1)c1ccc(C(=O)Nc2ccc(Cl)cc2C(=O)Nc2ccc(Cl)cn2)cc1 (configuration not stated) | 45% | – | – | –
24 | CS(=O)(=NC#N)c1ccc(C(=O)Nc2ccc(Cl)cc2C(=O)Nc2ccc(Cl)cn2)cc1 (configuration not stated) | 76% | 2.3 | – | –
25 | CN(C)CC(=O)N=S(C)(=O)c1ccc(C(=O)Nc2ccc(Cl)cc2C(=O)Nc2ccc(Cl)cn2)cc1 (configuration not stated) | 85% | 1.2 | 1.4 | IC50 [12]: 9 nM
26 | CC(=O)N=[S+](C)([O-])c1ccc(C(=O)Nc2ccc(Cl)cc2C(=O)Nc2ccc(Cl)cn2)cc1 (configuration not stated) | 61% | 7 | – | –
27 | CN1CCN(CC(=O)N=S(C)(=O)c2ccc(C(=O)Nc3ccc(Cl)cc3C(=O)Nc3ccc(Cl)cn3)cc2)CC1 (configuration not stated) | 88% | 2.03 | – | –
28 | N=S(=O)(CCO)c1ccc(C(=O)Nc2ccc(Cl)cc2C(=O)Nc2ccc(Cl)cn2)cc1 (configuration not stated) | inactive | – | – | –
29 | CS(=O)(=O)N=S(C)(=O)c1ccc(C(=O)Nc2ccc(Cl)cc2C(=O)Nc2ccc(Cl)cn2)cc1 (configuration not stated) | 55% | 2.6 | – | –
30 | CS(=O)(=NCCN1CCCC1)c1ccc(C(=O)Nc2ccc(Cl)cc2C(=O)Nc2ccc(Cl)cn2)cc1 (configuration not stated) | 74% | 2.16 | – | –
31 | CNCC(=O)N=S(C)(=O)c1ccc(C(=O)Nc2c(OC)cc(Cl)cc2C(=O)Nc2ccc(Cl)cn2)cc1 (configuration not stated) | 92% | 0.58 | 0.9 | IC50 [12]: 5.6 nM
32 | CCN(CC)CC(=O)N=S(C)(=O)c1ccc(C(=O)Nc2ccc(Cl)cc2C(=O)Nc2ccc(Cl)cn2)cc1 (configuration not stated) [listing 1 of 2 here] | 100% | – | – | Activity [14]: Dose-dependent effect; Activity [15]: Dose-dependent effect
33 | CCN(CC)CC(=O)N=S(C)(=O)c1ccc(C(=O)Nc2ccc(Cl)cc2C(=O)Nc2ccc(Cl)cn2)cc1 (configuration not stated) [listing 2 of 2 here] | – | 0.68 | 0.8 | IC50 [12]: 2.1 nM; Ki [16]: 1.1 nM; Ki [17]: > 20000 nM; Ki [18]: > 20000 nM; Ki [19]: > 20000 nM; Ki [20]: > 20000 nM; Ki [21]: > 20000 nM; inhibition at 10 µM [22]: 18%
34 | CN(C)CCN=S(C)(=O)c1ccc(C(=O)Nc2ccc(Cl)cc2C(=O)Nc2ccc(Cl)cn2)cc1 (configuration not stated) | 82% | 1.14 | 2.01 | IC50 [12]: 11.6 nM
35 | COc1cccc(C(=O)Nc2ccc(Cl)cn2)c1NC(=O)c1ccc(S(C)(=N)=O)cc1 (configuration not stated) | inactive | – | – | –
36 | CCNCC(=O)N=S(C)(=O)c1ccc(C(=O)Nc2ccc(Cl)cc2C(=O)Nc2ccc(Cl)cn2)cc1 (configuration not stated) | 100% | 0.81 | 2.1 | IC50 [12]: 2.7 nM; Ki [16]: 1.5 nM; Ki [17]: > 20000 nM; Ki [18]: > 20000 nM; Ki [19]: > 20000 nM; Ki [20]: > 20000 nM; Ki [21]: > 20000 nM; inhibition at 10 µM [22]: 27%
37 | CCN(CC)CC(=O)N=S(C)(=O)c1ccc(C(=O)Nc2c(OC)cc(Cl)cc2C(=O)Nc2ccc(Cl)cn2)cc1 (configuration not stated) | 97% | 0.92 | 1.3 | IC50 [12]: 3.4 nM
